Data: US10035791B2, “Bicyclic compound and pharmaceutical composition thereof for treating stroke and use thereof” (China Medical University, priority 2016, dated 2018)
Entries after “also recorded” stand apart in the source; their conditions may differ.

Key:
[1] = test system: primary cortical cultures (PCCs); assay: Lactate dehydrogenase (LDH) release rate analysis, H2O2-treated PCCs; format: cell-based, C57BL/6 mice
Experimental: H2O2 can cause an oxidative damage to cells and a destruction of the cell membrane, and consequently the LDH is released into medium. For that reason, the lower rate of the LDH released into the culture medium is represented the fewer damaged cells and better cell protection effect of sample.
(§1) Test cells are primary cortical cultures (PCCs) in this example. The PCCs are prepared from cerebral cortexes of gestation day 17 embryos from C57BL/6 mice as described previously (Cell Death Differ 2008; 15: 143-151). The PCCs are maintained under serum-free conditions in neurobasal medium (Invitrogen), supplemented with B-27 supplement (2%; invitrogen), glutamine (0.5 mM; Sigma Aldrich), glutamate ([…]; Sigma Aldrich), penicillin (100 U/ml) and streptomycin ([…]; Invitrogen). At 4 days in vitro, half of the medium is removed and replaced with fresh medium without glutamate. The cultures are maintained in a humidified incubator at 37° C. with 5% CO2. At 7 days in vitro, the PCCs are used for experimentation.
The PCCs are seeded in a 24-well plate and are allowed to stand for 20 minutes. […] The PCCs are maintained at 37° C. in a humidified atmosphere of 5% CO2 for 24 hours. After incubation, the culture medium is collected and washed twice with phosphate buffered saline (PBS), and then are analyzed the LDH activity in the culture medium by using LDH Cytotoxicity Detection Kit (TaKaRa Bio Laboratories, Japan) to calculate the percentage cytotoxicity, which is represented the situation of cells damage, of the PCCs. The lower percentage cytotoxicity presents the lower LDH activity detected and less severe of cells damages, which indicates the better cell protection effect of the sample. The LDH activity is measured by a colorimetry. After a reaction between enzyme and particular substrate, an absorbance of the reaction solution and the LDH activity is linearly correlated. The LDH activity (U/10^−3 L) is calculated by a reduced optical density slope at a wavelength of 340 nm within three minutes. A lactate dehydrogenase activity unit is defined as a catalytic consumption of […] NADH per minute.

ischemic rats [2] = assay: Body swing test; format: in vivo, Sprague-Dawley (SD) rats; conditions: 1 mg/kg, vs control group; 1, 7, 14 and 28 days after the injection, FIG. 19A
Excerpt: The ischemic rats are induced by an ischemia-reperfusion model to simulate transient focal cerebral ischemia in rats. Test animals are male Sprague-Dawley (SD) rats weighing 250-300 g. The rats are anesthetized with chloral hydrate (0.4 g/kg IP) and subjected to cerebral ischemia. The ischemia-reperfusion model is induced by ligations of bilateral common carotid arteries (CCAs) and a right middle cerebral artery (MCA). The bilateral CCAs are clamped with non-traumatic arterial clips, and the right MCA is ligated with an 10-0 nylon suture. After 90 minutes ischemia, the suture on the MCA and the arterial clips on CCAs are removed to allow reperfusion. Core body temperature is monitored with a thermistor probe (Hewlett-Packard Model 21090A probe, Hewlett-Packard Company, Andover, Mass.), and maintained at 37° C. with a heating pad during anesthesia. After recovery from anesthesia, rat body temperature is maintained at 37° C. with a heat lamp. […]
The body swing test is used to assess body asymmetry after MCA ligation. Initially, the ischemic rats are suspended by their tail 10 cm above the cage floor, and lateral body movements are recorded. Specifically, the frequency with which the initial head swing contra-lateral to the ischemic side is counted in twenty consecutive tests and is normalized to the baseline score.

ischemic rats [3] = assay: Volume of the infarction after cerebral ischemia, TTC staining; format: in vivo, Sprague-Dawley (SD) rats; conditions: 0.1, 1, 10 mg/kg intraperitoneal, 2 days after treatment, vs control, in particular 1 mg/kg, FIGS. 17A, 17B
Excerpt: The ischemic rats are induced by an ischemia-reperfusion model to simulate transient focal cerebral ischemia in rats. Test animals are male Sprague-Dawley (SD) rats weighing 250-300 g. The rats are anesthetized with chloral hydrate (0.4 g/kg IP) and subjected to cerebral ischemia. The ischemia-reperfusion model is induced by ligations of bilateral common carotid arteries (CCAs) and a right middle cerebral artery (MCA). The bilateral CCAs are clamped with non-traumatic arterial clips, and the right MCA is ligated with an 10-0 nylon suture. After 90 minutes ischemia, the suture on the MCA and the arterial clips on CCAs are removed to allow reperfusion. Core body temperature is monitored with a thermistor probe (Hewlett-Packard Model 21090A probe, Hewlett-Packard Company, Andover, Mass.), and maintained at 37° C. with a heating pad during anesthesia. After recovery from anesthesia, rat body temperature is maintained at 37° C. with a heat lamp.
In addition, the ischemic rats are intraperitoneal injected with different dosages of the Compound 1 (0.1 mg/kg, 1 mg/kg and 10 mg/kg). The ischemic rats intraperitoneal injected with vehicle are used as the control. At 2 days after the Compound 1 treatment, the ischemic rats are intracardially perfused with PBS. The brain tissues are removed, immersed in cold PBS, and sliced into 2-mm-thick sections. […]

HIF-1α [4] = assay: HIF-1α expressions in the PCCs with hypoxic treatment, Western blot; format: cell-based, C57BL/6 mice; conditions: 1 μM 2-ME2 for 16 hours, FIG. 6C
Experimental: as §1
One group of the PCCs is transduced with LV-HIF-1α-sh (sc-35562-V, Santa Cruz Biotechnology) and LV-control-sh (sc-108080, Santa Cruz Biotechnology) by a lenti-viral infection to reduce the HIF-1α expressions. Another group of the PCCs is treated with 1 μM of 2-ME2 for 16 hours to reduce the HIF-1α expressions in the PCCs. In FIG. 6C, the HIF-1α expressions in the PCCs are decreased both in the LV-HIF-1α-sh transduced group and the 2-ME2 treated group.

HIF-1α [5] = assay: Nuclear translocation of the HIF-1α in the PCCs under hypoxia, double immunofluorescence; format: cell-based, C57BL/6 mice; conditions: 1 μM 2-ME2 for 16 hours, then 1% O2 for 8 hours, FIG. 6A
Experimental: as §1
The subcellular locations of the HIF-1α and the Bmi-1 in the PCCs under hypoxia are examined by double immunofluorescence study. The PCCs are divided into three groups. One group is cultured with 21% of O2 as a control group. Another group is cultured with 1% of O2 for 8 hours as a hypoxic group. The other group is treated with 1 μM of 2-ME2 for 16 hours and then cultured with 1% of O2 for 8 hours as a 2-ME2 treated hypoxic group.

Row | SMILES | LDH release rate of the PCCs treated with H2O2 ([1]; compound 0.1 μM, FIG. 1G) [%] | LDH release rate of the PCCs treated with H2O2 ([1]; compound 100 μM, 10^-4 mol/L H2O2, 24 hours, FIG. 1F) | concentration at which the LDH release rate of the PCCs is reduced most ([1]; tested 0.1, 1, 10 and 100 μM, FIG. 1G) [µM] | neurological recovery in the body swing test (ischemic rats [2]) | volume of the infarction (TTC staining) (ischemic rats [3]) | HIF-1α expressions in the PCCs (HIF-1α [4]) | translocation of the HIF-1α to the nucleus under hypoxia (HIF-1α [5])
1 | COC(=O)C1=CO[C@@H](O)[C@@H]2C(COC(=O)[C@@H](N)Cc3ccccc3)=CC[C@H]12 [Compound 1] | 30 | lower LDH release rate; also recorded: reduces most LDH release rate | 100 | much more neurological recovery | much smaller |  | 
2 | COc1cc2c(cc1O)CC[C@@H]1[C@@H]2CC[C@]2(C)[C@@H](O)CC[C@@H]12 [Compound 2-ME2, 2-Methoxyestradiol, reference compound] |  |  |  |  |  | decreased | abolishes the translocation
